Experimental findings from the METLIN SMRT retention time set (Domingo-Almenara et al. 2019) are described below.

The nature of this data set: gradient 5% acetonitrile 3 min, to 50% in 2 min, to 85% in 15 min, held 3 min, 100 µL/min. The following applies: column: Zorbax Extend-C18 2.1 x 50 mm; eluents: water / acetonitrile, 0.1% formic acid. An outline of the steps: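 The mobile phases were water and acetonitrile, each with 0.1% formic acid, pumped at 100 μL/min through a Zorbax Extend-C18 column (2.1 × 50 mm, 1.8 μm). Pure standards were injected as mixtures of ~100 molecules and detected by a quadrupole time-of-flight mass spectrometer in positive and negative ionization mode. Retention time came from computationally picked adduct peaks, each inspected by hand.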
The molecule `CN(C)S(=O)(=O)N1CCC(n2c(Cc3ccccc3)nn(C)c2=O)CC1` had an RP-LC retention time of 748 s.

For `COc1ccc(S(=O)(=O)N2CCC(c3noc(-c4ccccn4)n3)C2)cc1` (centres undefined), the RP-LC retention time turned out to be 802 s.

With `COc1ccccc1C(O)Cn1ccn2nc(-c3ccc(C)c(C)c3)cc2c1=O` (centres undefined), the RP-LC retention time was determined as 982 s.

Consider `CCCNC(=O)N1CCN(c2cc(-c3ccc(OC)c(OC)c3)ncn2)CC1`, for which the RP-LC retention time is 601 s.

With `Cc1cccc2nc(-c3ccc(Cl)cc3)c(Nc3ccc4c(c3)OCO4)n12`, the RP-LC retention time stood at 750 s.

In turn, `COc1ccccc1CNC(=O)C1=C2CCCN2c2ccccc2S1(=O)=O` came in with an RP-LC retention time of 843 s.

As to `Cc1nn(-c2ccccc2)c(C)c1S(=O)(=O)N1CCC(C(=O)N2CCN(C)CC2)CC1`, the RP-LC retention time is 631 s.

The molecule `CCCN1C(=O)c2c(C(=O)NCc3ccccc3F)ncn2CC1(C)C(=O)NCc1ccccc1` (centres undefined) yielded an RP-LC retention time of 812 s.

On to `CC(C)CC(=O)N1CCN(c2ccc(=O)n(-c3ccc(C(C)C)cc3)n2)CC1`, for which the RP-LC retention time stood at 902 s.

`Clc1ccc(-c2nc(-c3ccc4c(c3)ncn4CCN3CCOCC3)no2)cc1` had an RP-LC retention time of 683 s.

Consider `O=C(NCCc1ccccc1)NCCC1CCN(S(=O)(=O)c2ccc(F)cc2)CC1`, for which the RP-LC retention time worked out at 887 s.

`Cc1nn(C(C)C(=O)NCCCN2CCOCC2)c(=O)c2nn(-c3ccccc3)c(C)c12` (centres undefined) registered an RP-LC retention time of 615 s.

As for `CC(C)N1C(=O)c2cccnc2Sc2cc(NC(=O)c3ccc4c(c3)OCO4)ccc21`, the RP-LC retention time turned out to be 878 s.

`COc1ccc(OC)c(CNC(=O)C2=C3CCCN3c3ccc(F)cc3S2(=O)=O)c1`: the RP-LC retention time was 872 s.

Regarding `O=C(NCc1ccccn1)C1CCCN(c2nccnc2Sc2ccccc2)C1` (centres undefined), the RP-LC retention time was 687 s.

The molecule `Cc1ccc(-c2cn3cccc(C)c3n2)cc1NS(=O)(=O)c1ccc(Cl)cc1` returned an RP-LC retention time of 714 s.

Molecule `CCn1nc(C)cc1C(=O)N1CCNC(=O)C1(C)C` yielded an RP-LC retention time of 568 s.

Take `O=C(Nc1cnc(-c2cccc(Cl)c2)nc1)c1ccsc1`: the RP-LC retention time was 1030 s.

For the molecule `CCNC(=O)C1CCCN(C(=O)c2cc(C)cc(C)c2)C1` (centres undefined), the RP-LC retention time is 718 s.

For `COC1CN(c2cccc(F)c2)C12CCN(Cc1cccc(F)c1)CC2` (centres undefined), the RP-LC retention time was determined as 761 s.

Molecule `Cc1oc2ncnc(N3CCCCC3)c2c1C(=O)N(CCN(C)C)Cc1ccccc1` gave an RP-LC retention time of 568 s.

The molecule `Cc1csc(-c2ccc(CNC(=O)c3ccnn3C)cc2)n1` had an RP-LC retention time of 772 s.

`CCOc1ccccc1N1CCN(S(=O)(=O)c2nn(C)cc2C(=O)NCCCOC(C)C)CC1`: the RP-LC retention time worked out at 971 s.

For the molecule `COCCC(=O)N1CCC2(CCC2O)CC1` (centres undefined), the RP-LC retention time was 593 s.

Molecule `CC(=O)N1CCc2cc(N3CC(C(=O)Nc4ccccc4C(F)(F)F)CC3=O)ccc21` (centres undefined) returned an RP-LC retention time of 710 s.

Molecule `COc1ccc(N2CC(c3nc(-c4ccc(C(F)(F)F)cc4)no3)CC2=O)cc1` (centres undefined) gave an RP-LC retention time of 1040 s.

In the case of `Cc1ccc(-c2cn3c(CC(=O)NCCc4ccccc4)csc3n2)cc1C`, the RP-LC retention time was found to be 928 s.

The molecule `CC(C)Cn1nc2ccc(S(=O)(=O)N3CCOCC3)cn2c1=O` had an RP-LC retention time of 732 s.

`O=C(c1ccccc1Cl)N1CCC(Cc2nnc(-c3ccccc3)o2)CC1` registered an RP-LC retention time of 864 s.

In turn, `O=[N+]([O-])c1c(NCCCO)cc(Nc2ccc(F)cc2)c2nonc12` registered an RP-LC retention time of 676 s.

`Cc1ccnc(N2CCC(C(=O)NCCCN3CCCC3=O)CC2)n1` gave an RP-LC retention time of 579 s.

For `Cc1nn(C)c(C)c1C(=O)N1CC(n2cc(COc3ccc(F)cc3)nn2)C1`, the RP-LC retention time worked out at 712 s.

With `Cc1oc(-c2ccc(NC(=O)c3ccsc3)cc2)nc1Cn1cccn1`, the RP-LC retention time was found to be 823 s.

Turning to `CCSc1nnc(NC(=O)Cc2cc(-c3ccc4c(c3)CC(C)O4)on2)s1` (centres undefined), the RP-LC retention time is 895 s.

In turn, `CCOCCCNC(=O)NCCn1cnc2cc(C(=O)N3CCCC3)ccc21` yielded an RP-LC retention time of 577 s.

In the case of `CC(C)CNC(=O)CC1=C2CCCCC2NC1=O` (centres undefined), the RP-LC retention time came out at 644 s.

`O=C1CCCc2cc(S(=O)(=O)NCCN3CCN(c4ccccc4)CC3)ccc2N1` yielded an RP-LC retention time of 621 s.

The molecule `CSc1cccc(NC(=O)C2CCN(S(=O)(=O)c3cn(C(C)C)cn3)CC2)c1` yielded an RP-LC retention time of 812 s.

Take `CNC(=O)[C@@H]1CN(S(=O)(=O)c2ccc(Cl)s2)C[C@H]1c1n[nH]c(C)n1`: the RP-LC retention time stood at 656 s.

The molecule `CCSc1nnc(-c2nn(C)c3c2CN(S(=O)(=O)c2ccc(CC)cc2)CC3)n1CC` displayed an RP-LC retention time of 1030 s.

Take `O=C(c1noc2ccc(S(=O)(=O)N3CCCc4ccccc43)cc12)N1CCCC1`: the RP-LC retention time is 1060 s.

As to `O=C(Nc1nc2c(s1)CCC2)c1ccc2c(c1)OCO2`, the RP-LC retention time came to 812 s.

Consider `Cc1cccc(-c2nnc3ccc(Cl)nn23)c1`, for which the RP-LC retention time came out at 823 s.

In the case of `Cn1cc(-c2nc(C(=O)NCc3ccccc3Cl)cs2)c2cccnc21`, the RP-LC retention time turned out to be 989 s.

Molecule `COC(=O)CNC(=O)Nc1ncc(-c2ccccc2)n1C` displayed an RP-LC retention time of 596 s.

For the molecule `CCn1c(CN(c2ccc(F)cc2)S(C)(=O)=O)nnc1SCc1nnc(-c2ccccc2)o1`, the RP-LC retention time came out at 760 s.

With `c1ccc(-c2noc(-c3cc(N4CCOCC4)nc4ccccc34)n2)cc1`, the RP-LC retention time was 1240 s.

In the case of `Cc1cc(C(=O)Nc2ccc(-c3ccn[nH]3)cc2)c(C)o1`, the RP-LC retention time came out at 716 s.

The molecule `COc1cc(OC)c(NC(=O)Nc2c(-c3ccccc3)nc3ccccn23)cc1Cl` returned an RP-LC retention time of 682 s.

As to `Cc1cc(F)ccc1N1C(=O)CN(S(C)(=O)=O)CC1(C)C(=O)NC1CCCCCCC1` (centres undefined), the RP-LC retention time came out at 1070 s.

In turn, `COc1cc(NC(=O)C2CCCN(S(=O)(=O)c3cc(-c4noc(C)n4)cs3)C2)cc(OC)c1` (centres undefined) showed an RP-LC retention time of 949 s.

In turn, `COc1cc(CC(=O)N2CCN(c3cc(C(C)C)n4cnnc4n3)CC2)cc(OC)c1` displayed an RP-LC retention time of 635 s.

The molecule `Cn1cc(C2=CCN(S(=O)(=O)Cc3ccccc3)CC2)c2cccnc21` came in with an RP-LC retention time of 898 s.

In turn, `CNC(=O)c1sc2nc(-c3cccc(OC)c3)c(NCCOC)n2c1C` showed an RP-LC retention time of 696 s.

`Cc1ccc(NC(=O)c2cnc(-c3ccccc3)nc2-c2ccncc2)c(Br)c1` had an RP-LC retention time of 987 s.

For `Cc1ccc2c(C(=O)NCc3ccccc3C)cc(NC(=O)C(C)C)cc2n1`, the RP-LC retention time is 671 s.

`O=C(NC1c2ccccc2-c2ccccc21)c1cccc([N+](=O)[O-])c1` came in with an RP-LC retention time of 961 s.

`CCc1noc2nc(CCC(=O)NCCCN3CCCC(C)C3)nc(N3CCCCC3)c12` (centres undefined) returned an RP-LC retention time of 673 s.

`CCn1cc(CCNS(=O)(=O)c2ccccc2F)c2cccnc21` registered an RP-LC retention time of 745 s.

On to `CC(=O)N1CCc2cc(S(=O)(=O)C(C)CC(=O)N3CCN(c4ccc(C)cc4C)CC3)ccc21` (centres undefined), for which the RP-LC retention time is 968 s.

The molecule `O=C(Nc1cccn2c(C3CCC3)nnc12)C1COc2ccccc2O1` (centres undefined) displayed an RP-LC retention time of 837 s.

Turning to `Cc1sc(NC(=O)c2ccccc2Br)nc1-c1ccc2c(c1)NC(=O)C(C)O2` (centres undefined), the RP-LC retention time was found to be 943 s.

`CCOc1ccc2nc(NC(=O)c3ccc(N4CCCC4)nn3)sc2c1`: the RP-LC retention time stood at 830 s.

The molecule `COc1cc(CC(=O)N2CCN(c3cc(C)n4c(C)nnc4n3)CC2)cc(OC)c1` displayed an RP-LC retention time of 576 s.

In turn, `O=c1ccc(-c2ccc3c(c2)OCO3)nn1Cc1nc(-c2ccc3c(c2)OCO3)no1` showed an RP-LC retention time of 934 s.

Turning to `O=C(Nc1cnn(-c2ncncc2N2CCOCC2)c1)C1CCCC1`, the RP-LC retention time is 624 s.

As to `CCOc1ccc(S(=O)(=O)N2CCC(c3noc(-c4ccc(Cl)cc4)n3)CC2)cc1`, the RP-LC retention time was found to be 1260 s.

Consider `COCCN1CC2(CCN(S(=O)(=O)c3ccc(C)cc3)CC2)C1c1ccccc1` (centres undefined), for which the RP-LC retention time turned out to be 693 s.

Regarding `Cc1ccc(-n2ccc(=O)c(-c3nc(-c4ccc(Cl)c(F)c4)no3)n2)cc1`, the RP-LC retention time turned out to be 1050 s.

As for `Cc1nc(CC(=O)Nc2nc(-c3ccc(Br)cc3)cs2)cs1`, the RP-LC retention time came out at 996 s.

`Cc1c(CNCCN(C)C)c(C(=O)O)c(C)n1Cc1ccccc1F` displayed an RP-LC retention time of 591 s.

Take `CCc1cc(=O)n(Cc2cccc(F)c2)c(N2CCOCC2)n1`: the RP-LC retention time was 909 s.

The molecule `Cc1ccc(CNC(=O)C2CCN(c3cnc4nccnc4c3)CC2)cc1` gave an RP-LC retention time of 705 s.

In turn, `OC[C@H]1OC(n2cnc3c(N[C@H]4CCC[C@@H]4O)ncnc32)[C@H](O)[C@@H]1O` (some centres undefined) came in with an RP-LC retention time of 551 s.

In the case of `Cc1cc(N2C(=O)CCS2(=O)=O)cc(C)c1S(=O)(=O)N1CCC(C(N)=O)CC1`, the RP-LC retention time amounted to 648 s.

For the molecule `CCn1cc(S(=O)(=O)N2[C@H]3CC[C@@H]2c2cnc(-c4ccccc4)nc2C3)cn1`, the RP-LC retention time came out at 868 s.

`Cn1cc(CCNC(=O)c2cncc(Br)c2)c2cccnc21` returned an RP-LC retention time of 638 s.

On to `COC(=O)COc1cc(-c2ccccc2)nc2ccc(NS(=O)(=O)c3ccccc3)cc12`, for which the RP-LC retention time is 774 s.

Molecule `CNC(=O)C1CCCN(c2nc3ncn(CC(=O)Nc4ccc(Cl)cc4)c(=O)c3s2)C1` (centres undefined) yielded an RP-LC retention time of 685 s.
